The values that follow are results of earlier work, collected in PMC7661967, “Magnetic Resonance Molecular Imaging of Extradomain B Fibronectin Improves Imaging of Pancreatic Cancer Tumor Xenografts” (Frontiers in Oncology, 2020).

The data set has as its system EDB-FN in PaCa. Conditions: PET; cited from earlier work. An excerpt:
Molecular imaging of EDB-FN in cancer has been previously investigated with antibodies labeled with radioisotopes for PET imaging. Anti-EDN-FN antibody BC-1 was labeled with ^125I and tested in mice bearing U87 brain tumor and SKMel28 melanoma xenografts ([29]). […] Nanobodies with a smaller size were recently developed for molecular imaging of E ...

For “ZD2-((68)Ga-NOTA) [ZD2 peptide labeled with ^68Ga]”, the “molecular imaging of EDB-FN in PaCa” value is “sensitive and specific molecular imaging of EDB-FN in PaCa”.
